Where a SMILES comes first, the peptide text is derived from it.

Data set [1] is described as follows: Clinical study of 0.1% N-Acetyl-RGDS in patients with POAG and OH (IOP, tonography). It counts as in vivo, human. Conditions: 0.1% topically twice daily. The text has this:
Without intending to be bound by theory, the inventor currently believes that RGD-containing peptides, and/or their pharmacologically acceptable salts, are efficacious for the therapeutical and surgical treatment of primary open-angle glaucoma (POAG) and ocular hypertension (OH). […] The effect of 0.1% N-Acetyl-RGDS on outflow facility, as studied by tonography, was striking providing a significant increase to 26-33%. The cleansing activity of Acetyl-RGDS is accompanied by increase in trabecular outflow facility which is different from that of other drugs (pilocarpine) previously shown in patients with POAG and OH. The clinical significance and mechanism of IOP reduction by N-Acetyl-RGDS are related with the cleansing effect of N-Acetyl-RGDS on extracellular matrix proteins and plaque material in trabecular meshwork to reduce the outflow resistance in the eyes of patients with POAG and OH. It is believed N-Acetyl-RGDS is also suitable to treat secondary cataracts and vitreoproliferative disorders.

Data set [2] can be described thus: Pharmacokinetic studies: N-acetylcarnosine in blood plasma after topical administration to the eye. The data set is classed as in vivo. As for the experimental part: (§1) Yet another advantage of the present invention is that systemic absorption of N-acetylcarnosine and/or carnosine is increased through the microvessels of the conjunctival and lid mucosal tissues because the cellulose compound increases the time of persistence of N-acetylcarnosine in the conjunctival sac. More particularly, N-acetylcarnosine appears in blood plasma within 30 min of its topical administration to the eye with carboxymethylcellulose. The half time of decay of N-acetylcarnosine in plasma is about 150 min or more according to pharmacokinetic studies. […] Accordingly, once in blood plasma N-acetylcarnosine can act as a competititve saturating inhibitor of carnosinase, which is very helpful to protect L-carnosine from hydrolysis during concomitant oral administration of L-carnosine as an anti-aging therapy.

The next data set concerns the target T1, carnosinase (Homo sapiens, UniProt Q96KN2).
T1 sequence (Q96KN2 27-507 limits assumed): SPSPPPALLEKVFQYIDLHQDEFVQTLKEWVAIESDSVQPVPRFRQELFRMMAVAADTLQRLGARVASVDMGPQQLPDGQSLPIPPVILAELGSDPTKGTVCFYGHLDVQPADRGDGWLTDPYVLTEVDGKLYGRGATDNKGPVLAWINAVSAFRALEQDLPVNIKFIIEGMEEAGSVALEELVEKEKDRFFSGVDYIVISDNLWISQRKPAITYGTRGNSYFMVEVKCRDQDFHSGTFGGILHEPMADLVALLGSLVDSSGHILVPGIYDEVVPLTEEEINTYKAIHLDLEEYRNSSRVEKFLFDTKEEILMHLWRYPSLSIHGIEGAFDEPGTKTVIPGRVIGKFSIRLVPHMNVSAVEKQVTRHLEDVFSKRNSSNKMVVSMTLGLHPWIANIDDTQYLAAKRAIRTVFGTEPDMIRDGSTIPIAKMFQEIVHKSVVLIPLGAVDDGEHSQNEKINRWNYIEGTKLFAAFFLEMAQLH
Nature of the data set: Hydrolysis with carnosinase. The data set is classed as biochemical. Conditions: substrate of carnosinase similar to L-carnosine. As to the method: as §1

With `CC(=O)N[C@@H](CCCNC(=N)N)C(=O)NCC(=O)N[C@@H](CC(=O)O)C(=O)N[C@@H](CO)C(=O)O` [N-Acetyl-RGDS, N-acetyl-Arg-Gly-Asp-Ser peptide] (Ac-RGDS-OH), the tolerability entry in data set [1] is “well tolerated”.

With `CC(=O)NCCC(=O)N[C@@H](Cc1c[nH]cn1)C(=O)O` [N-acetylcarnosine], the “half time of decay in plasma” value in data set [2] (according to pharmacokinetic studies) is at least 150 min. Further, the “time to appearance in blood plasma” value in data set [2] (topical administration to the eye with carboxymethylcellulose) is on record as at most 30 min. In addition, on carnosinase, the “resistance to hydrolysis with carnosinase” value is given as “highly resistant to hydrolysis with carnosinase”.

The values above are taken from patent publication US7795203B2, “Method for topical treatment of eye disease and composition and device for said treatment” (priority 2002, dated 2010).
